Columns and labels:
Assay in all cases: Large panel kinase profiling
Type in all cases: biochemical
Settings in all cases: 1 μM test article, 1 mM ATP
RIPK2 = RIPK2 (Homo sapiens, UniProt O43353)
Procedure, shortened: (§1)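 Fluorescence intensity (Ex 360 nm, Em 485 nm) was monitored continuously, once per minute, in PhosphoSens CSox-Sensor kinase reactions held at 30° C. Compound was present at 1 μM and ATP at 1 mM.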

MUSK = target: T1, MUSK (Homo sapiens, UniProt O15146)
T1 construct: AssayQuant Technologies, Inc. (assay service)
T1 sequence (O15146 24-869): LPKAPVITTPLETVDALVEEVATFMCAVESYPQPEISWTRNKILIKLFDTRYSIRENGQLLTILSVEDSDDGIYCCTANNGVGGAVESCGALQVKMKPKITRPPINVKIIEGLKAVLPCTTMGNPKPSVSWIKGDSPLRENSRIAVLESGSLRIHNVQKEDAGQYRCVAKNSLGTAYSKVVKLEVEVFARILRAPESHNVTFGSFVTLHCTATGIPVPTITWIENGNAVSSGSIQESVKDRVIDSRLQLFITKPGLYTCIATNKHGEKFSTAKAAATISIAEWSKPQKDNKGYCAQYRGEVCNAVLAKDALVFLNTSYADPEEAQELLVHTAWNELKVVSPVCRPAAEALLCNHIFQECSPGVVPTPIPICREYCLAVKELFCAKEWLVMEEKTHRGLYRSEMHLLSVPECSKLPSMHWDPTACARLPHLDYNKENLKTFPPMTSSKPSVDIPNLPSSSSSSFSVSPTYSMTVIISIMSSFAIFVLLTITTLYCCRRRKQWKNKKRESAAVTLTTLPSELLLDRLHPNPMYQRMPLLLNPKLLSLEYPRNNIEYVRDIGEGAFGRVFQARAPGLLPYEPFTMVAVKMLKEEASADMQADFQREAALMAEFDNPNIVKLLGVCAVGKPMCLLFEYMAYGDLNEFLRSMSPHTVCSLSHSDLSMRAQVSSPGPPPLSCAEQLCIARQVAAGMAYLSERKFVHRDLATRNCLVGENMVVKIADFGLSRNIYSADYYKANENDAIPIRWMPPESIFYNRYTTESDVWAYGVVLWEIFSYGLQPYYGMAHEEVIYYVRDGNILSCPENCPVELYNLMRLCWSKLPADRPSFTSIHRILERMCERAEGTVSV
Procedure, shortened: as §1

ERN2 = ERN2 (Homo sapiens, UniProt Q76MJ5)
Procedure, shortened: as §1

FGR = FGR (Homo sapiens, UniProt P09769)
Procedure, shortened: as §1

NEK6 = target: T2, NEK6 (Homo sapiens, UniProt Q9HC98)
T2 construct: AssayQuant Technologies, Inc. (assay service)
Procedure, shortened: as §1

CSF1R/FMS = target: T3, CSF1R/FMS (Homo sapiens, UniProt P07333)
T3 construct: AssayQuant Technologies, Inc. (service laboratory)
Procedure, shortened: as §1

PRKAA2/AMPK211 = PRKAA2/AMPK211 (Homo sapiens, UniProt P54646)
Procedure, shortened: as §1

DDR1 = target: T4, DDR1 (Homo sapiens, UniProt Q08345)
T4 construct: AssayQuant Technologies, Inc. (service laboratory)
Procedure, shortened: as §1

CAMK2D = target: T5, CAMK2D (Homo sapiens, UniProt Q13557)
T5 construct: AssayQuant Technologies, Inc. (ran the panel)
Procedure, shortened: as §1

T5 sequence (Q13557 whole entry, species assumed): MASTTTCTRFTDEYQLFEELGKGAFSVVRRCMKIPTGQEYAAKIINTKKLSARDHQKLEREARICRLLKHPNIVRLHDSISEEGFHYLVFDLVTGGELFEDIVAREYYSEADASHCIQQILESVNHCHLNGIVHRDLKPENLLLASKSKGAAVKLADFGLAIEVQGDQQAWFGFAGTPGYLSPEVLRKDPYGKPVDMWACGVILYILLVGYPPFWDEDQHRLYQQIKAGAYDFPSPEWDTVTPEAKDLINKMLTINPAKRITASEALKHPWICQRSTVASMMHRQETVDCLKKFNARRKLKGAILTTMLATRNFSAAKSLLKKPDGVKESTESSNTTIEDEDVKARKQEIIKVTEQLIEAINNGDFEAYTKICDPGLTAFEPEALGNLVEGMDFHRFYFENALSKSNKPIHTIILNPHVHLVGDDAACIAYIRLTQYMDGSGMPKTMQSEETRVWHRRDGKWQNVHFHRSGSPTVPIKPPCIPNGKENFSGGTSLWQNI
T3 sequence (P07333 20-972): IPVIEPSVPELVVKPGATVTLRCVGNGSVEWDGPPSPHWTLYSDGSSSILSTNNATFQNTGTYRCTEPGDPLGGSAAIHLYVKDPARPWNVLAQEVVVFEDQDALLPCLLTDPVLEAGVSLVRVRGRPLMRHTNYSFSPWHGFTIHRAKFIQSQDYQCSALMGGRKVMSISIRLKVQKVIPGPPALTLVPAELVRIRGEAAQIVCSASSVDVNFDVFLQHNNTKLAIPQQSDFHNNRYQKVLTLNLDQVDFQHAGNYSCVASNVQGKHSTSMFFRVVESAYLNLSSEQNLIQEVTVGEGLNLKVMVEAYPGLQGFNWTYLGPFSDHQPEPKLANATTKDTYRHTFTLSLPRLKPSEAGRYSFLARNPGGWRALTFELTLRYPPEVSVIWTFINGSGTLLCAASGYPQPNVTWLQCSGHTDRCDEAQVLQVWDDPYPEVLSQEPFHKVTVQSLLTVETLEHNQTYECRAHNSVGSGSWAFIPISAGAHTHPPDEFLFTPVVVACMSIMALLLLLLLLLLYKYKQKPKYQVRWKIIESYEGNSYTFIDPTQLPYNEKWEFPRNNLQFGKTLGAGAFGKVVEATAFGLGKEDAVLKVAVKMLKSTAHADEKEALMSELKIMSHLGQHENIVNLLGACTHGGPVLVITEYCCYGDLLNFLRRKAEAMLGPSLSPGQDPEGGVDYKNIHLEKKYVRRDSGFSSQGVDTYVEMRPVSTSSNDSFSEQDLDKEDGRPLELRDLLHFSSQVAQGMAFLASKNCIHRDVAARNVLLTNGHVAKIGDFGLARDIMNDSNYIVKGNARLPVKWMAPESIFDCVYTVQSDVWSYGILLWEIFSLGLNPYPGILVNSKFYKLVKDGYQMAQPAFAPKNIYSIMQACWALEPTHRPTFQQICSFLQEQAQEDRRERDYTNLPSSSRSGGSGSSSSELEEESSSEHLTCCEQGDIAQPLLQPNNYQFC
T4 sequence (Q08345 19-913, species assumed): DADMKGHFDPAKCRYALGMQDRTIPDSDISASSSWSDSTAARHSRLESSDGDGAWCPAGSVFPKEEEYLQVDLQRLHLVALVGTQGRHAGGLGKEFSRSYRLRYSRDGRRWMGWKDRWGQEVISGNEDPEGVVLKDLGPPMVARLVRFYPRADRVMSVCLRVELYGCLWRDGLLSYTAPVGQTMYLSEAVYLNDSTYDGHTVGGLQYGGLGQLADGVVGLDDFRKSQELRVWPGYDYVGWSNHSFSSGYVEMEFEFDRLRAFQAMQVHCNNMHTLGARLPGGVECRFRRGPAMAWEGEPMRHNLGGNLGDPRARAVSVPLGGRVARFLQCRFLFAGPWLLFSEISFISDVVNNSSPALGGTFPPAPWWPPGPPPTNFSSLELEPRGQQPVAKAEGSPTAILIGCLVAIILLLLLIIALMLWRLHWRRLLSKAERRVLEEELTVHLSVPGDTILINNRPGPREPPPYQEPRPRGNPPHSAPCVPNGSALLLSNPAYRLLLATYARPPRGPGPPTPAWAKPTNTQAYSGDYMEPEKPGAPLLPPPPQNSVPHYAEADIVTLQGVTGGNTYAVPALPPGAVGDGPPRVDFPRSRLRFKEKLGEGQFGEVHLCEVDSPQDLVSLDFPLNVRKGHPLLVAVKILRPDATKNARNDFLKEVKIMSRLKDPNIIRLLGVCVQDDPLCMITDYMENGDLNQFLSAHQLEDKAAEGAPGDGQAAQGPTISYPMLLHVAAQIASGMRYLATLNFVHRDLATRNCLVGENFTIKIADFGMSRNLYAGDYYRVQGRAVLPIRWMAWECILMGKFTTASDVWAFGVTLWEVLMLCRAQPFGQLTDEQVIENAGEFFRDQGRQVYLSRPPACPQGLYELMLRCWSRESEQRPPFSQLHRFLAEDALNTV
Chain of FGR (P09769 whole entry, species assumed): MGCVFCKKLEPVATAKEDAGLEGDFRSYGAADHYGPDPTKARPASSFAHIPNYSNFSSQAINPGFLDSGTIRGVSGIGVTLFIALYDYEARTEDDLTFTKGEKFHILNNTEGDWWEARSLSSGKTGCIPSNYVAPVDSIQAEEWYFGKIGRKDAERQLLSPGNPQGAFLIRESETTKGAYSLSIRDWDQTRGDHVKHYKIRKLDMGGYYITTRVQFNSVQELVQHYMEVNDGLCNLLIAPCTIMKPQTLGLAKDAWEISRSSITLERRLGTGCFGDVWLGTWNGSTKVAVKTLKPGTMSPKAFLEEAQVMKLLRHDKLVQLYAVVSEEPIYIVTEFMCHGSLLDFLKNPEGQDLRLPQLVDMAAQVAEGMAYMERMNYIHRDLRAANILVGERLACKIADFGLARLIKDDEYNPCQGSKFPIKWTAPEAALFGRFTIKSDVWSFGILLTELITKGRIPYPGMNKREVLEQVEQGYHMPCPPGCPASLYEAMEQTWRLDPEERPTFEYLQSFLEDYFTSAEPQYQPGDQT
T2 sequence (Q9HC98 whole entry, species assumed): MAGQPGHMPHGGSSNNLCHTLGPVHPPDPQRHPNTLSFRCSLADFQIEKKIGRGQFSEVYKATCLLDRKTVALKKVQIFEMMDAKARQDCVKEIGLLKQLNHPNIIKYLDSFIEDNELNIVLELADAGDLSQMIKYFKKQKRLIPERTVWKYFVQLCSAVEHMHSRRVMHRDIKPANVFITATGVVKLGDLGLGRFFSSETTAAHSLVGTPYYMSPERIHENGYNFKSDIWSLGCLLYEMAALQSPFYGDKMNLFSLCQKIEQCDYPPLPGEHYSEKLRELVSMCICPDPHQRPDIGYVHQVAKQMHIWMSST
Chain of PRKAA2/AMPK211 (P54646 whole entry, species assumed): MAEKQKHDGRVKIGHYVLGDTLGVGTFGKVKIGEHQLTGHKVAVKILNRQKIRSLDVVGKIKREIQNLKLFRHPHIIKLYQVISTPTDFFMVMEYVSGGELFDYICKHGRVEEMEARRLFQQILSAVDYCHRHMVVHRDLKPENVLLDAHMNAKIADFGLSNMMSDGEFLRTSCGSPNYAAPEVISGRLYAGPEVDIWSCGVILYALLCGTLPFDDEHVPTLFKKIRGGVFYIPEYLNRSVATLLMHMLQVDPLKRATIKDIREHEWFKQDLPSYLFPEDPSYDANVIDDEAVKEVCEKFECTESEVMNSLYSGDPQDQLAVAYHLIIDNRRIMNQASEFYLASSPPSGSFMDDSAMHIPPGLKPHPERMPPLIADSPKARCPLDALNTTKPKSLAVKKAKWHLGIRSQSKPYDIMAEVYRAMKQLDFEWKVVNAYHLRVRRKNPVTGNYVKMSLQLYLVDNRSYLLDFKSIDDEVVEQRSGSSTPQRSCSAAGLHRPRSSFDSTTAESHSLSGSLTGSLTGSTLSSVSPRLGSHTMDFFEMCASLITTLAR
Chain of PRKAA2/AMPK211 (Q9Y478 whole entry partner, species assumed): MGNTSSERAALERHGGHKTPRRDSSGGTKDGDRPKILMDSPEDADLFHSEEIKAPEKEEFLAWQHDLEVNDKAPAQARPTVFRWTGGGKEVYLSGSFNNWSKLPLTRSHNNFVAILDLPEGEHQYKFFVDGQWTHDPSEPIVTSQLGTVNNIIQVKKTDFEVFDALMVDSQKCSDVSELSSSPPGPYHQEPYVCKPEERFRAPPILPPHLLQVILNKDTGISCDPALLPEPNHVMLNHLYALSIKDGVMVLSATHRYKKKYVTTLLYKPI
Chain of PRKAA2/AMPK211 (P54619 whole entry partner, species assumed): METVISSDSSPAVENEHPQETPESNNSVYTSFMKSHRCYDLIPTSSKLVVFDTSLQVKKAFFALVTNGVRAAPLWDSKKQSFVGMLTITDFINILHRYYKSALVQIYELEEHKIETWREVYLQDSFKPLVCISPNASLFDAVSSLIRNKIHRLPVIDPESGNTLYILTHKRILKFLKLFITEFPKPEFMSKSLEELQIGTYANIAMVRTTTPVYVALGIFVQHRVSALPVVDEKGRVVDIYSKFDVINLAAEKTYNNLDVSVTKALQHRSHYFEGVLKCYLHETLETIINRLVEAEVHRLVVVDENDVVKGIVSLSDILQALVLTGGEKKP
Chain of RIPK2 (O43353 whole entry, species assumed): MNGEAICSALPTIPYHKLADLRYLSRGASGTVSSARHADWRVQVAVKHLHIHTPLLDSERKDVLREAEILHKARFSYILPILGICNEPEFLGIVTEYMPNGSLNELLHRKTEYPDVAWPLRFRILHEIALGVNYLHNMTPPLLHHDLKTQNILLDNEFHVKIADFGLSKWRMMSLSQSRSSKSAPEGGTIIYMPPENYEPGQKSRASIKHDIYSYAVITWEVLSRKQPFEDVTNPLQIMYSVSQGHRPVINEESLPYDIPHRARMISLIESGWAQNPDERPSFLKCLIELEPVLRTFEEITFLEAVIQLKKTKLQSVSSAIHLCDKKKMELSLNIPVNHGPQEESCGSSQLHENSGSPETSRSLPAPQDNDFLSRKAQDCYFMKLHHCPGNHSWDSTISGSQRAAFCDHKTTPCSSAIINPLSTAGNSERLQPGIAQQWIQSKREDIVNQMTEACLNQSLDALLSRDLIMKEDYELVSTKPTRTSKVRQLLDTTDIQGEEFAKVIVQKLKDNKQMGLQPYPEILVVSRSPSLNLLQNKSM

| SMILES | inhibition at 1 µM (RIPK2) | inhibition at 1 µM (MUSK) | inhibition at 1 µM (ERN2) | inhibition at 1 µM (FGR) | inhibition at 1 µM (NEK6) | inhibition at 1 µM (CSF1R/FMS) | inhibition at 1 µM (PRKAA2/AMPK211) | inhibition at 1 µM (DDR1) | inhibition at 1 µM (CAMK2D) |
| --- | --- | --- | --- | --- | --- | --- | --- | --- | --- |
| C=CC(=O)N1CCCC(c2c(F)cc(C(N)=O)c3[nH]c4c(c23)CCCCC4)C1 (single isomer, unassigned) [Compound 5-6] | 7.1% | 10.9% | -8% | 17.1% | -13.5% | 21.3% | -24.4% | 1.4% | 1.1% |
| C=CC(=O)N1CCC[C@@H](c2c(F)cc(C(N)=O)c3[nH]c4c(c23)CC2(CC4)CC2)C1 [Compound 6-2, (S)-5-(1-acryloylpiperidin-3-yl)-6-fluoro-1,2,4,9-tetrahydrospiro[carbazole-3,1′-cyclopropane]-8-carboxamide] | -31.3% | -3.1% | -14.6% | -25.9% | -5.8% | 24.9% | 28.8% | 24.5% | 8.4% |
| C=CC(=O)N1CCC[C@@H](c2c(F)cc(C(N)=O)c3[nH]c4c(c23)CCC4)C1 [Compound 10-2, (S)-8-(1-acryloylpiperidin-3-yl)-7-fluoro-1,2,3,4-tetrahydrocyclo-penta[b]indole-5-carboxamide] | -45.4% | 3% | -7.1% | 3.6% | -13.6% | 20.2% | 36.6% | -41.1% | -10.7% |
